Assay [1] deals with MIA PaCa2 cells. As to the kind of experiment: Anti-proliferative effect on MIA PaCa2 cells by Cell Titer-Glo. In kind it is cell-based. The conditions noted are these: Homo sapiens, MIA PaCa-2, 72 h, 3 days, read-out: MIA PaCa 2 (IC50, inhibition of proliferation in vitro). As for the experimental part: (§1) Test Example 2: Evaluation of Cell Proliferation Inhibitory Activity
2. Evaluation of the Anti-Proliferative Effect of Compounds on MIA PaCa2 Cells by the Cell Titer-Glo Method
(§2) Compound solutions of different concentration gradients were prepared. […] The cell growth group without compound was used as a positive control (maximum signal control) and the medium was used as a negative control (minimum signal control), while ensuring that the final level of DMSO in each reaction well was 0.2%. After removing the medium from the 384-well plate, 25 ul of the configured compound at different concentrations was transferred into the well plate and the compound and cells were incubated in the cell incubator at 37° C. with 5% CO2 for 3 days.
The 384-well plates were removed from the cell incubator and allowed to equilibrate for 1 h to room temperature. 25 ul of Cell Titer-Glo assay was added to each well, lysed on a shaker for 2 min and then read out (Luminescence) using a BMG PHERAStar after 10 min incubation. Calculate the inhibition rate from the luminescence signal: first calculate the average of the positive control (maximum signal control) and the negative control (minimum signal control).
was used to calculate the rate of inhibition of the cells by different concentrations of the compounds. The IC50 of the compound on cell activity inhibition was calculated by fitting a log(inhibitor) vs. response-Variable slope model to GraphPad Prism 6. The fitted equation was: Y=Bottom+(Top-Bottom)/(1+10^((Log IC50−X)*HillSlope)), wherein Y represents the rate of inhibition and X represents the concentration of the known compound after Log.
(§3) The results of the in vitro anti-cell proliferation assays of H1299 and MIA Paca-2 for the example compounds according to the method described above are shown in Table 2, wherein the IC50 of each compound was determined and classified according to the description as follows: […]

In assay [2] the target is T1, Wee1 protein (Homo sapiens, UniProt P30291).
T1 construct: purchased Thermo Fisher PR7373A
Description: Binding of compound to Wee1 protein and Tracer 178 by TR-FRET (Wee1 kinase inhibitory activity). The conditions noted are these: 15 nM WEE1, 50 nM Tracer 178, read-out: IC50 (inhibitory activity against Wee1 kinase). As for the experimental part: First, solutions of the compounds in different concentration gradients were prepared. The compounds were dissolved in DMSO and the compounds were diluted 4 folds with a total of 10 dose points and 2 parallel replicates for each concentration.
The IC50 for inhibition of enzyme activity by the compounds was then calculated using GraphPad Prism 6 and fitted with a log (inhibitor) vs. response-Variable slope mode. The fitting equation was: Y=Bottom+(Top−Bottom)/(1+10^((Log IC50−X)*HillSlope)), wherein Y represents the percentage of residual enzyme activity known and X represents the known concentration of compound after the logarithm.

Assay [3] has as its system H1299 cells. Description: Anti-proliferative effect on H1299 cells by Cell Titer-Glo. The conditions noted are these: Homo sapiens, NCI-H1299, 72 h, 3 days, read-out: H1299 (IC50, inhibition of proliferation in vitro). In kind it is cell-based. How it is done:
as §1
1. Evaluation of the Anti-Proliferative Effect of Compounds on H1299 Cells by the Cell Titer-Glo Method
as §2
The 384-well plates were removed from the cell incubator and allowed to equilibrate for 1h to room temperature. 25 ul of Cell Titer-Glo assay was added to each well, lysed on a shaker for 2 min and then read out (Luminescence) using a BMG PHERAStar after 10 min incubation. Calculate the inhibition rate from the luminescence signal: first calculate the average of the positive control (maximum signal control) and the negative control (minimum signal control).
was used to calculate the rate of inhibition of the cells by different concentrations of the compounds. The IC50 of the compound on cell activity inhibition was calculated by fitting a log(inhibitor) vs. response-Variable slope model to GraphPad Prism 6. The fitted equation was: Y=Bottom+(Top−Bottom)/(1+10^((Log IC50−X)*HillSlope)), where Y represents the rate of inhibition and X represents the concentration of the known compound after Log.
as §3
In general terms: ATP-based viability assays read luminescence as a measure of living cells.

T1 sequence (P30291 whole entry): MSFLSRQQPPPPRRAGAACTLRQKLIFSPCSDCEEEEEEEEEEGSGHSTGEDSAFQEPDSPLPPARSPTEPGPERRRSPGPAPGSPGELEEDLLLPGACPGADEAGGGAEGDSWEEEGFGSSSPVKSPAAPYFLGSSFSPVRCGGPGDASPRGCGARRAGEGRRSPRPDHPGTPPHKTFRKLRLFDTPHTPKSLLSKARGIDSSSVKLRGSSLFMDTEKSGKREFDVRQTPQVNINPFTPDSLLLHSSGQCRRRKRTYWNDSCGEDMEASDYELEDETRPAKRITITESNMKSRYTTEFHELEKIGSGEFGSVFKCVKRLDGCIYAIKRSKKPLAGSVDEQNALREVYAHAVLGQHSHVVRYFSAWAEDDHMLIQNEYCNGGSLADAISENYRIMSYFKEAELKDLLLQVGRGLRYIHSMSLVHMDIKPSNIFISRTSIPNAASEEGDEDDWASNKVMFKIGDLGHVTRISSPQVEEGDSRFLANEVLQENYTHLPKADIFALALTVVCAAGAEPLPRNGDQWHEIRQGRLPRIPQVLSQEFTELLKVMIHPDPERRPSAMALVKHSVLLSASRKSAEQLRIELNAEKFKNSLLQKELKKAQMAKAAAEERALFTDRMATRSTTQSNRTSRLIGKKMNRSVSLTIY

Regarding `C=CCn1c(=O)c2cnc(Nc3ccc(N4C[C@@H]5C[C@H]4CN5C(C)C)cc3)nc2n1-c1cccc(C(C)(C)O)n1` [Compound 41], the IC50 in assay [1] lay in the range of 100 to 1000 nM; in assay [2], 10 to 100 nM; in assay [3], 100 to 1000 nM.
For the compound `C=CCn1c(=O)c2cnc(Nc3ccc(N4CCN(C)CC4)cc3)nc2n1-c1ccc2c(C(C)=O)cn(CC)c2n1` [Compound 70], the values for the IC50 in assay [2] and in assay [3] were 5 to 10 nM and 100 to 1000 nM, respectively.
Turning to `C=CCn1c(=O)c2cnc(Nc3ccc(N4CC5CC(C4)N5CCOC)cc3)nc2n1-c1cccc(C(C)(C)O)n1` [Compound 67], the IC50 in assay [1] is ≤ 100 nM; in assay [2], 5 to 10 nM; in assay [3], 100 to 1000 nM.
For the compound `C=CCn1c(=O)c2cnc(Nc3ccc(N4[C@@H]5C[C@H]4CN(C)C5)cc3)nc2n1-c1cccc(C(C)(C)O)n1` [Compound 43], the figures for the IC50 in assay [1], in assay [2] and in assay [3] were 2000 to 5000 nM, 10 to 100 nM and 2000 to 5000 nM, respectively.
For the compound `C=CCn1c(=O)c2cnc(Nc3ccc(N4CCN(C)CC4)cc3)nc2n1-c1ccc2c(n1)OC(C)(C)CO2` [Compound 74], the IC50 in assay [1] was > 10000 nM; in assay [2] it was 10 to 100 nM; in assay [3], > 10000 nM.
For the compound `C=CCn1c(=O)c2cnc(Nc3ccc(N4CC5CC(C4)N5C4CN(C)C4)cc3)nc2n1-c1cccc(C(C)(C)O)n1` [Compound 63], the IC50 in assay [1] was > 10000 nM; in assay [2], 1000 to 10000 nM; in assay [3], > 10000 nM.
Regarding `C=CCn1c(=O)c2cnc(Nc3ccc(-n4cc(N5CCCC5)cn4)cc3)nc2n1-c1cccc(C(C)(C)O)n1` [Compound 55], the IC50 in assay [1] was 1000 to 2000 nM; in assay [2] it was 10 to 100 nM; in assay [3] it was 1000 to 2000 nM.
For `C=CCn1c(=O)c2cnc(Nc3ccc(N4CC5CCC(C4)O5)cc3)nc2n1-c1cccc(C(C)(C)O)n1` [Compound 17], the figures for the IC50 in assay [1], in assay [2] and in assay [3] were 1000 to 2000 nM, 5 to 10 nM and 100 to 1000 nM, respectively.
Turning to `C=CCn1c(=O)c2cnc(Nc3ccc(N4CCN(C)CC4)cc3)nc2n1-c1ccc2c(n1)N(CC)C(=O)C2(C)C` [Compound 71], the IC50 lay in the range of 10 to 100 nM in assay [2] and 2000 to 5000 nM in assay [3].
In the case of `C=CCn1c(=O)c2cnc(Nc3ccc(N4C[C@@H]5C[C@H]4CN5C)cc3)nc2n1-c1ccc2ccn(CC)c2n1` [Compound 76], the IC50 in assay [1] was 1000 to 2000 nM; in assay [2], 10 to 100 nM; in assay [3], 100 to 1000 nM.
On the same counts, the results for `C=CCn1c(=O)c2cnc(Nc3ccc(N4CC5CC(CN(Cc6ccccc6)C5)C4)cc3)nc2n1-c1cccc(C(C)(C)O)n1` [Compound 22] are 1000 to 2000 nM, 10 to 100 nM and 100 to 1000 nM.
For the compound `C=CCn1c(=O)c2cnc(Nc3ccc([C@H]4C[C@@]45C(=O)C4CCN5CC4)cc3)nc2n1-c1cccc(N=S(C)(C)=O)n1` [Compound 47a], the IC50 is 1000 to 2000 nM in assay [1], 10 to 100 nM in assay [2] and 100 to 1000 nM in assay [3].
Take `C=CCn1c(=O)c2cnc(Nc3ccc(N4C[C@@H]5C[C@H]4CN5CC(F)(F)F)cc3)nc2n1-c1cccc(C(C)(C)O)n1` [Compound 30]: the IC50 in assay [1] was 1000 to 2000 nM; in assay [2] it was < 5 nM; in assay [3], 1000 to 2000 nM.
Take `C=CCn1c(=O)c2cnc(Nc3ccc(N4C[C@@H]5C[C@H]4CN5C)cc3)nc2n1-c1cccc(N=S(C)(C)=O)n1` [Compound 5]: the IC50 in assay [2] is < 5 nM; in assay [3], 100 to 1000 nM.
For `C=CCn1c(=O)c2cnc(Nc3ccc(N4CCN(C)CC4)cc3)nc2n1-c1cc2ccccc2s1` [Compound 72], the IC50 was 10 to 100 nM in assay [2] and 5000 to 10000 nM in assay [3].
As to `C=CCn1c(=O)c2cnc(Nc3ccc(N4CCN(C)CC4)cc3)nc2n1-c1cccc(C2(S(C)(=O)=O)CC2)n1` [Compound 1], the IC50 in assay [2] is 5 to 10 nM; in assay [3], 2000 to 5000 nM.
Consider `C=CCn1c(=O)c2cnc(Nc3ccc(-n4cc(N(C)C)cn4)cc3)nc2n1-c1cccc(C(C)(C)O)n1` [Compound 36], for which the IC50 in assay [1] is 1000 to 2000 nM; in assay [2], 10 to 100 nM; in assay [3], 1000 to 2000 nM.
Consider `C=CCn1c(=O)c2cnc(Nc3ccc(N4CC5CC(CN(CCOC)C5)C4)cc3)nc2n1-c1cccc(C(C)(C)O)n1` [Compound 34], for which the IC50 was in the range of 2000 to 5000 nM in assay [1], 10 to 100 nM in assay [2] and 5000 to 10000 nM in assay [3].
`C=CCn1c(=O)c2cnc(Nc3cc(F)c(N4CC5CC(C4)N5C)c(F)c3)nc2n1-c1cccc(C(C)(C)O)n1` [Compound 79]: the IC50 in assay [2] is 10 to 100 nM; in assay [3] it was > 10000 nM.
For the compound `C=CCn1c(=O)c2cnc(Nc3ccc(N4CCOc5ccccc54)cc3)nc2n1-c1cccc(C(C)(C)O)n1` [Compound 31], the IC50 is 5000 to 10000 nM in assay [1], 10 to 100 nM in assay [2] and 5000 to 10000 nM in assay [3].
With `C=CCn1c(=O)c2cnc(Nc3ccc(N(CC)CC(=O)NC)cc3)nc2n1-c1cccc(C(C)(C)O)n1` [Compound 13], the IC50 in assay [1] lay in the range of 5000 to 10000 nM; in assay [2], 5 to 10 nM; in assay [3] it was 5000 to 10000 nM.
On to `C=CCn1c(=O)c2cnc(Nc3ccc(N4C[C@@H]5C[C@H]4CN5CCO)cc3)nc2n1-c1cccc(C(C)(C)O)n1` [Compound 38], for which the IC50 in assay [1] was in the range of 100 to 1000 nM; in assay [2] it was 10 to 100 nM; in assay [3], 2000 to 5000 nM.
For the compound `C=CCn1c(=O)c2cnc(Nc3ccc(N4CCN(C)CC4)cc3)nc2n1-c1ccc2nc(C)n(CC)c2n1` [Compound 75], the IC50 lay in the range of 10 to 100 nM in assay [2] and 1000 to 2000 nM in assay [3].
As for `C=CCn1c(=O)c2cnc(Nc3ccc(C4CCN(C)CC4)cc3)nc2n1-c1ccc2ccn(CC)c2n1` [Compound 77], the IC50 in assay [1] was in the range of 1000 to 2000 nM; in assay [2], 5 to 10 nM; in assay [3], 1000 to 2000 nM.
For `C=CCn1c(=O)c2cnc(Nc3ccc(N4C[C@H]5C[C@@H]4CO5)cc3)nc2n1-c1cccc(C(C)(C)O)n1` [Compound 20], the IC50 in assay [1] was in the range of 1000 to 2000 nM; in assay [2], 5 to 10 nM; in assay [3], 100 to 1000 nM.
For the compound `C=CCn1c(=O)c2cnc(Nc3ccc(N4CC5CC(C4)N5C(=O)OC)cc3)nc2n1-c1cccc(C(C)(C)O)n1` [Compound 69], the results for the IC50 in assay [2] and in assay [3] were 10 to 100 nM and 100 to 1000 nM, respectively.
On to `C=CCn1c(=O)c2cnc(Nc3ccc(N(CC)CC(=O)N4CCN(C)CC4)cc3)nc2n1-c1cccc(C(C)(C)O)n1` [Compound 14], for which the figures for the IC50 in assay [1], in assay [2] and in assay [3] were 2000 to 5000 nM, 5 to 10 nM and 5000 to 10000 nM, respectively.
For the compound `C=CCn1c(=O)c2cnc(Nc3ccc(N4CCN(C)c5ccccc54)cc3)nc2n1-c1cccc(C(C)(C)O)n1` [Compound 50], the results for the IC50 in assay [1], in assay [2] and in assay [3] were > 10000 nM, 100 to 1000 nM and 5000 to 10000 nM, respectively.
On the same counts, the results for `C=CCn1c(=O)c2cnc(Nc3ccc(N4CC5CC(C4)N5CC)cc3)nc2n1-c1cccc(C(C)(C)O)n1` [Compound 65] are 100 to 1000 nM, 5 to 10 nM and 100 to 1000 nM.
Turning to `C=CCn1c(=O)c2cnc(Nc3ccc(N4CCN(C)CC4)cc3)nc2n1-c1ccc2c(F)cn(CC)c2n1` [Compound 73], the IC50 in assay [2] was 10 to 100 nM; in assay [3] it was 1000 to 2000 nM.
With `C=CCn1c(=O)c2cnc(Nc3ccc(N4CC5CC4CN5C4CCN(C)CC4)c(C)c3)nc2n1-c1cccc(C(C)(C)O)n1` (centres unmarked) [Compound 21], the IC50 in assay [1] was in the range of 100 to 1000 nM; in assay [2] it was 10 to 100 nM; in assay [3], 1000 to 2000 nM.
For the compound `C=CCn1c(=O)c2cnc(Nc3ccc(OC4CN5CCC4CC5)cc3)nc2n1-c1cccc(N=S(C)(C)=O)n1` (centres unmarked) [Compound 7], the IC50 is < 5 nM in assay [2] and 100 to 1000 nM in assay [3].

These data come from patent US20250034151A1, “WEE1 INHIBITOR, PREPARATION THEREFOR, AND USE THEREOF” (JIANGSU TASLY DIYI PHARMACEUTICAL CO., LTD., priority 2022, published 2025).
